Assay results as given in patent US11214594B2, “Antimicrobial peptide having synergistic antibacterial effect with antibiotics on multidrug resistant bacteria, and use thereof” (priority 2016, dated 2022).
Converted amounts (≈) assume the structure as drawn. Where two headings read alike, the source gives them in different places. Where a SMILES comes first, the peptide text is derived from it.

Columns and labels:
[1] = tested on: P. aeruginosa; test: microbe, parasite or virus in culture; type: cell-based, Pseudomonas aeruginosa
Method in brief: (§1)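 Each strain is brought to 2×10^6 CFU in nutrient-sufficient Mueller-Hinton medium and dispensed into wells. Peptide solutions, stepwise diluted 2:1 in the same medium, are then added. The minimal concentration preventing growth gives the MIC.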

[2] = tested on: MDRAB 12035; test: microbe, parasite or virus in culture; type: cell-based, Acinetobacter baumannii
Method in brief: as §1

[3] = tested on: A. baumannii; test: microbe, parasite or virus in culture; type: cell-based, Acinetobacter baumannii
Method in brief: as §1

[4] = tested on: S. epidermidis; test: microbe, parasite or virus in culture; type: cell-based, Staphylococcus epidermidis
Method in brief: as §1

[5] = tested on: MDREC 1229; type: cell-based, Escherichia coli
Method in brief: (§2)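 Antibiotic MIC came from antibiotic dilutions added to bacteria (2×10^6 CFU/ml, MH medium) already combined with peptide serially diluted 2:1 from its own MIC. Swapping the roles of the two agents gave the peptide MIC.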

[6] = tested on: E. coli; type: cell-based, Escherichia coli; conditions: E. coli
Method in brief: as §2

[7] = tested on: MDRAB 12035; test: MIC of antimicrobial peptide during combined treatment with antibiotic; type: cell-based, Acinetobacter baumannii
Method in brief: as §2

[8] = tested on: A. baumannii; test: as above; type: cell-based, Acinetobacter baumannii
Method in brief: as §2

[9] = tested on: A. baumannii; test: MIC of antibiotic during combined treatment with antimicrobial peptide; type: cell-based, Acinetobacter baumannii; conditions: for Antibiotic MIC, Erythromycin / Antibiotic MIC, Linezolid / Antibiotic MIC, Vancomycin: A. baumannii
Method in brief: (§3)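 Antibiotic diluted in MH medium, dispensed per well with peptide; setup repeated with roles reversed; MIC read per combination.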

[10] = tested on: E. coli; test: as above; type: cell-based, Escherichia coli; conditions: for Antibiotic MIC, Erythromycin / Antibiotic MIC, Linezolid / Antibiotic MIC, Vancomycin: E. coli
Method in brief: as §3

[11] = tested on: MDRAB 12035; test: as above; type: cell-based, Acinetobacter baumannii
Method in brief: as §2

[12] = tested on: MDRST 8007; test: Minimal inhibitory concentration (MIC), single agent; type: cell-based, Salmonella typhimurium; conditions: agent alone
Method in brief: as §1

[13] = with Erythromycin […] (Conc./MIC 1)
[14] = erythromycin 4 μg/ml (Conc./MIC 1/8)
[15] = erythromycin 8 μg/ml (Conc./MIC 1/4)
[16] = erythromycin 16 μg/ml (Conc./MIC 1/2)
[17] = erythromycin 32 μg/ml (Conc./MIC 1)
[18] = vancomycin 512 μg/ml (Conc./MIC 1/2)
[19] = vancomycin 1024 μg/ml (Conc./MIC 1)
[20] = combined with peptide at 1 μg/ml
[21] = combined with peptide at 2 μg/ml
[22] = combined with peptide at 4 μg/ml
[23] = combined with peptide at 6 μg/ml
[24] = combined with peptide at 8 μg/ml
[25] = combined with peptide at 16 μg/ml
[26] = combined with peptide at 32 μg/ml
[27] = combined with peptide at 64 μg/ml
[28] = peptide treatment concentration 1 μg/ml
[29] = peptide treatment concentration 2 μg/ml
[30] = peptide treatment concentration 4 μg/ml
[31] = peptide treatment concentration 6 μg/ml
[32] = peptide treatment concentration 8 μg/ml
[33] = peptide treatment concentration 16 μg/ml
[34] = peptide treatment concentration 32 μg/ml
[35] = peptide treatment concentration 64 μg/ml

Which results are given for `CC[C@H](C)[C@H](NC(=O)[C@H](CCCCN)NC(=O)[C@H](Cc1c[nH]c2ccccc12)NC(=O)[C@@H](N)CCCNC(=N)N)C(=O)N[C@@H](Cc1ccccc1)C(=O)N[C@@H](CCCCN)C(=O)N[C@@H](CCCCN)C(=O)N[C@H](C(=O)N1CCC[C@H]1C(=O)N[C@@H](CCCCN)C(=O)N[C@@H](CC(C)C)C(=O)N[C@@H](CC(C)C)C(=O)N[C@@H](Cc1c[nH]cn1)C(=O)N[C@@H](CO)C(=O)N[C@@H](CC(C)C)C(=O)N[C@@H](CCCCN)C(=O)N[C@@H](CCCCN)C(=O)N[C@@H](Cc1ccccc1)C(N)=O)[C@@H](C)CC` [PapMA-8, RWK IFK KIP KLL HSL KKF-NH2] (H-RWKIFKKIPKLLHSLKKF-NH2; N-terminus assumed)?
Minimal inhibitory concentration MIC [1]: 16 µg/mL (≈ 6.93 µM); Antibacterial activity (in words) ([1]; P. aeruginosa and S. typhimurium): significantly increased; Minimal inhibitory concentration MIC [2]: 64 µg/mL (≈ 27.7 µM); Peptide MIC, peptide alone [2]: 64 µg/mL; Minimal inhibitory concentration MIC [3]: 32 µg/mL (≈ 13.9 µM); Peptide MIC, peptide alone [3]: 32 µg/mL; Minimal inhibitory concentration MIC [4]: >128 µg/mL; Peptide MIC [5, 13]: 0 µg/mL; Peptide MIC ([5]; with Linezolid 512 μg/ml (Conc./MIC 1)): 0 µg/mL; Peptide MIC [6, 13]: 0 µg/mL; Peptide MIC ([6]; with Linezolid […] (Conc./MIC 1)): 0 µg/mL; Peptide MIC ([6]; with Vancomycin 1024 μg/ml (Conc./MIC 1)): 0 µg/mL; Peptide MIC during treatment with erythromycin [7, 14]: 8 µg/mL; Peptide MIC during treatment with erythromycin [7, 15]: 8 µg/mL; Peptide MIC during treatment with erythromycin [7, 16]: 4 µg/mL; Peptide MIC during treatment with erythromycin [7, 17]: 0 µg/mL; Peptide MIC during treatment with linezolid ([7]; linezolid 64 μg/ml (Conc./MIC 1/8)): 4 µg/mL; Peptide MIC during treatment with linezolid ([7]; linezolid 512 μg/ml (Conc./MIC 1)): 0 µg/mL; Peptide MIC during treatment with linezolid ([7]; linezolid […] (Conc./MIC 1/2)): 1 µg/mL; Peptide MIC during treatment with linezolid ([7]; linezolid […] (Conc./MIC 1/4)): 2 µg/mL; Peptide MIC during treatment with vancomycin [7, 18]: 2 µg/mL; Peptide MIC during treatment with vancomycin [7, 19]: 1 µg/mL; Peptide MIC during treatment with vancomycin ([7]; vancomycin […] (Conc./MIC 1/4)): 2 µg/mL; Peptide MIC during treatment with vancomycin ([7]; vancomycin […] (Conc./MIC 1/8)): 4 µg/mL; Peptide MIC during treatment with antibiotic [8, 14]: 4 µg/mL; Peptide MIC during treatment with antibiotic [8, 15]: 4 µg/mL; Peptide MIC during treatment with antibiotic [8, 16]: 2 µg/mL; Peptide MIC during treatment with antibiotic [8, 17]: 0 µg/mL; Peptide MIC during treatment with antibiotic ([8]; linezolid 32 μg/ml (Conc./MIC 1/8)): 4 µg/mL; Peptide MIC during treatment with antibiotic ([8]; linezolid 64 μg/ml (Conc./MIC 1/4)): 2 µg/mL; Peptide MIC during treatment with antibiotic ([8]; linezolid […] (Conc./MIC 1)): 0 µg/mL; Peptide MIC during treatment with antibiotic ([8]; linezolid […] (Conc./MIC 1/2)): 2 µg/mL; Peptide MIC during treatment with antibiotic [8, 18]: 1 µg/mL; Peptide MIC during treatment with antibiotic [8, 19]: 0 µg/mL; Peptide MIC during treatment with antibiotic ([8]; vancomycin […] (Conc./MIC 1/4)): 1 µg/mL; Peptide MIC during treatment with antibiotic ([8]; vancomycin […] (Conc./MIC 1/8)): 4 µg/mL; Synergistic effect of antibacterial activity with existing antibiotics compared with PapMA-1 ([9]; A. baumannii and MDRAB 12035): higher level than the PapMA-1 peptide; Antibiotic MIC, Erythromycin [9, 20]: 32 µg/mL; Antibiotic MIC, Linezolid [9, 20]: >128 µg/mL; Antibiotic MIC, Vancomycin [9, 20]: >128 µg/mL; Antibiotic MIC, Erythromycin [9, 21]: 8 µg/mL; Antibiotic MIC, Linezolid [9, 21]: 64 µg/mL; Antibiotic MIC, Vancomycin [9, 21]: >128 µg/mL; Antibiotic MIC, Erythromycin [9, 22]: 4 µg/mL; Antibiotic MIC, Linezolid [9, 22]: 32 µg/mL; Antibiotic MIC, Vancomycin [9, 22]: 32 µg/mL; Antibiotic MIC, Erythromycin [9, 23]: 4 µg/mL; Antibiotic MIC, Linezolid [9, 23]: 16 µg/mL; Antibiotic MIC, Vancomycin [9, 23]: 16 µg/mL; Antibiotic MIC, Erythromycin [9, 24]: 0.25 µg/mL; Antibiotic MIC, Linezolid [9, 24]: 4 µg/mL; Antibiotic MIC, Vancomycin [9, 24]: 8 µg/mL; Antibiotic MIC, Erythromycin [9, 25]: 0.125 µg/mL; Antibiotic MIC, Linezolid [9, 25]: 1 µg/mL; Antibiotic MIC, Vancomycin [9, 25]: 4 µg/mL; Antibiotic MIC, Erythromycin [9, 26]: 0 µg/mL; Antibiotic MIC, Linezolid [9, 26]: 0 µg/mL; Antibiotic MIC, Vancomycin [9, 26]: 0 µg/mL; Antibiotic MIC, Erythromycin [9, 27]: 0 µg/mL; Antibiotic MIC, Linezolid [9, 27]: 0 µg/mL; Antibiotic MIC, Vancomycin [9, 27]: 0 µg/mL; Synergistic effect of antibacterial activity with existing antibiotics compared with PapMA-1 ([10]; E. coli and MDREC1229): higher level than the PapMA-1 peptide; Antibiotic MIC, Erythromycin ([10]; erythromycin combined with peptide at 1 μg/ml): 128 µg/mL; Antibiotic MIC, Erythromycin ([10]; erythromycin combined with peptide at 2 μg/ml): 64 µg/mL; Antibiotic MIC, Erythromycin ([10]; erythromycin combined with peptide at 4 μg/ml): 8 µg/mL; Antibiotic MIC, Erythromycin ([10]; erythromycin combined with peptide at 6 μg/ml): 4 µg/mL; Antibiotic MIC, Erythromycin ([10]; erythromycin combined with peptide at 8 μg/ml): 0.5 µg/mL; Antibiotic MIC, Erythromycin ([10]; erythromycin combined with peptide at 16 μg/ml): 0.25 µg/mL; Antibiotic MIC, Erythromycin ([10]; erythromycin combined with peptide at 32 μg/ml): 0 µg/mL; Antibiotic MIC, Erythromycin ([10]; erythromycin combined with peptide at 64 μg/ml): 0 µg/mL; Antibiotic MIC, Linezolid ([10]; linezolid combined with peptide at 1 μg/ml): >128 µg/mL; Antibiotic MIC, Linezolid ([10]; linezolid combined with peptide at 2 μg/ml): >128 µg/mL; Antibiotic MIC, Linezolid ([10]; linezolid combined with peptide at 4 μg/ml): 128 µg/mL; Antibiotic MIC, Linezolid ([10]; linezolid combined with peptide at 6 μg/ml): 32 µg/mL; Antibiotic MIC, Linezolid ([10]; linezolid combined with peptide at 8 μg/ml): 8 µg/mL; Antibiotic MIC, Linezolid ([10]; linezolid combined with peptide at 16 μg/ml): 2 µg/mL; Antibiotic MIC, Linezolid ([10]; linezolid combined with peptide at 32 μg/ml): 0 µg/mL; Antibiotic MIC, Linezolid ([10]; linezolid combined with peptide at 64 μg/ml): 0 µg/mL; Antibiotic MIC, Vancomycin ([10]; vancomycin combined with peptide at 1 μg/ml): >128 µg/mL; Antibiotic MIC, Vancomycin ([10]; vancomycin combined with peptide at 2 μg/ml): >128 µg/mL; Antibiotic MIC, Vancomycin ([10]; vancomycin combined with peptide at 4 μg/ml): 64 µg/mL; Antibiotic MIC, Vancomycin ([10]; vancomycin combined with peptide at 6 μg/ml): 32 µg/mL; Antibiotic MIC, Vancomycin ([10]; vancomycin combined with peptide at 8 μg/ml): 16 µg/mL; Antibiotic MIC, Vancomycin ([10]; vancomycin combined with peptide at 16 μg/ml): 2 µg/mL; Antibiotic MIC, Vancomycin ([10]; vancomycin combined with peptide at 32 μg/ml): 0 µg/mL; Antibiotic MIC, Vancomycin ([10]; vancomycin combined with peptide at 64 μg/ml): 0 µg/mL; Erythromycin MIC during combined treatment with peptide [11, 28]: 32 µg/mL; Linezolid MIC during combined treatment with peptide [11, 28]: >128 µg/mL; Vancomycin MIC during combined treatment with peptide [11, 28]: >128 µg/mL; Erythromycin MIC during combined treatment with peptide [11, 29]: 32 µg/mL; Linezolid MIC during combined treatment with peptide [11, 29]: >128 µg/mL; Vancomycin MIC during combined treatment with peptide [11, 29]: >128 µg/mL; Erythromycin MIC during combined treatment with peptide [11, 30]: 16 µg/mL; Linezolid MIC during combined treatment with peptide [11, 30]: 64 µg/mL; Vancomycin MIC during combined treatment with peptide [11, 30]: 64 µg/mL; Erythromycin MIC during combined treatment with peptide [11, 31]: 8 µg/mL; Linezolid MIC during combined treatment with peptide [11, 31]: 32 µg/mL; Vancomycin MIC during combined treatment with peptide [11, 31]: 32 µg/mL; Erythromycin MIC during combined treatment with peptide [11, 32]: 4 µg/mL; Linezolid MIC during combined treatment with peptide [11, 32]: 16 µg/mL; Vancomycin MIC during combined treatment with peptide [11, 32]: 8 µg/mL; Erythromycin MIC during combined treatment with peptide [11, 33]: 2 µg/mL; Linezolid MIC during combined treatment with peptide [11, 33]: 4 µg/mL; Vancomycin MIC during combined treatment with peptide [11, 33]: 4 µg/mL; Erythromycin MIC during combined treatment with peptide [11, 34]: 1 µg/mL; Linezolid MIC during combined treatment with peptide [11, 34]: 2 µg/mL; Vancomycin MIC during combined treatment with peptide [11, 34]: 2 µg/mL; Erythromycin MIC during combined treatment with peptide [11, 35]: 0 µg/mL; Linezolid MIC during combined treatment with peptide [11, 35]: 0 µg/mL; Vancomycin MIC during combined treatment with peptide [11, 35]: 0 µg/mL; Minimal inhibitory concentration MIC [12]: 64 µg/mL (≈ 27.7 µM)
